This note sets out measurements from US20220409578A1, “FUNCTIONALIZED 1,3-BENZENE DIOLS AND THEIR METHOD OF USE FOR THE TREATMENT OF RADIATION DERMATITIS AND OTHER SKIN DISORDERS” (KANNALIFE SCIENCES, INC., priority 2019, published 2022).

Usually pIC50 stands for the negative decadic logarithm of the IC50, by convention in mol/L. Usually pEC50 stands for −log10 of the EC50, conventionally taken in molar units. The low end stands for a high EC50, the high end for a low EC50.

In series [1] the test system is IL-8. The series is described as follows: IL-8 release, nickel-induced allergy in human dermal microvascular endothelial cells (ELISA). It counts as cell-based. The note with it: Homo sapiens, Endothelial cell; co-treatment with NiSO4, HDMECs; read-out: IC50 of IL-8 inhibition. The method, then:
Dermal Microvascular endothelial cells of human origin were cultured in vitro using standard conditions (37° C., 95% v/v air, 5% v/v CO2). Human cells were selected as relevant to cell types within skin tissues for this development program. Cell culture methods are commonly used in non-clinical studies conducted on pharmaceutical products. […] Cells were cultured until the third and fourth passage and then acclimated for 24 hours before Nickel induction and dosing procedures. Cell treatment groups were identified using appropriate 96-well plates. The test and control articles were administered to medium containing 1 mM NiSO4 in triplicates. The negative control group received vehicle-only (0.1% v/v final) dose. A fixed 0.1 μL/well from 1000× stock dose volume was administered to 100 μL of media to each cell culture well on Day 2 and incubated for 6 hours at 37 degrees. These cell cultures were also utilized to determine the concentrations of test agent that were non-toxic after 24 hours of incubation.
Assay for Interleukin-8: Test material was applied in vitro for the ability to inhibit pro-inflammatory (IL-8) cytokine secretion by cultured HDMECs co-treated with Nickel (NiSO4). Clobetasol propionate was tested as positive control material for anti-inflammatory activity. The pro-inflammatory cytokine (IL-8) was quantified by enzyme-linked immunosorbent assay (ELISA) after inflammatory induction and incubation with test and control materials. Interleukin-8 levels in cell culture medium are markers of inflammation signaling by endothelial cells present in skin microvascular tissue in response to irritation. Interleukin-8 (IL-8) levels were assessed using BD Biosciences OptEIA™ Human IL-8 ELISA Set kit (Cat. No. 555244) and Reagent Set B (Cat. No. 550534) according to the manufacture's specifications. Absorbance was measured at 450 nm using plate reader and interleukin-8 levels were calculated from a standard curve.

A short description of series [2]: Antioxidant capacity (ABTS/metmyoglobin assay). It counts as biochemical. The note with it: OD 750 nm, 15 minutes after hydrogen peroxide. Here is the method: Antioxidant capacity: The purpose of this study was to evaluate the overall antioxidant capacity of KLS-13022 for the ability to inhibit the oxidation of ABTS. (2,2′-Azino-di-[3-ethylbenzthiazoline sulphonate]) to ABTS.^+ by metmyoglobin. Ascorbic acid (Vitamin C) was used as positive antioxidant control in the assay. The testing involved the suppression of optical density (OD) at 750 nm to a degree, which is proportional to an effective oxidation inhibition. Neat solutions were prepared for materials formulated in HPLC-grade water (ascorbic acid) or 200-proof ethanol (KLS-13022). Serial dilutions were prepared for each material and mixed with metmyoglobin enzyme in assay buffer solution. All samples were compared to vehicle-only treated samples used as negative oxidation inhibition. Optical density changes at 750 nm were evaluated 15 minutes after addition of hydrogen peroxide to each sample. Average absorbance was calculated and plotted for each sample concentration. Effective antioxidant inhibition activity based on the change of absorbance of blank (vehicle-only) sample (no material added). […] The Antioxidant assay kit was obtained from Cayman Chemical Co. (Ann Arbor, Mich.). The assay consisted in the evaluation of the overall antioxidant capacity of test materials for the ability to inhibit the oxidation of ABTS. to ABTS.^+ by metmyoglobin. […]

For series [3], the system named is human 3D cornea-like EPIOCULAR
The series can be described thus: Eye irritation, EPIOCULAR reconstructed cornea-like model, OECD 492 (MTT). It counts as cell-based. The note with it: KLS-13022 up to 3% w/v in 60:40 ethanol:water; OECD 492. The method, then:
Ocular irritancy: The purpose of this study was to evaluate any potential ocular irritation activity of KLS-13022 formulations compared to vehicle-only treated tissues in vitro on human 3D cornea-like EPIOCULAR by topical application according to OECD 492 protocol. Test formulations of KLS-13022 up to 3% w/v in 60:40 ethanol:water vehicle were prepared fresh before use. EPIOCULAR tissues were acclimated before treatments for 24 hours and later treated topically for 30 minutes with KLS-13022 (0.01, 0.1, 0.3 1, 3% w/v). Methyl acetate was used as positive eye irritant control. Tissue viability levels were measured by MTT reduction assay method after material treatments. The levels of tissue viability after each material treatment was compared to vehicle control group to determine any potential ocular irritation activity.
Average levels of tissue viability were calculated for each treatment group. According to OECD 492 protocol, predicted positive eye irritation activities were determined when obtaining <60% tissue viability. […] Primary cornea-like inserts were used from human origin and purchased from MatTek (Ashland, Mass.). […] Tissues were cultured with standard conditions (37° C., 95% v/v air, 5% v/v CO2) and acclimated for 18+3 hours before dosing procedures.

pEC50, pIC50: −log10 of the molar value.

As to `CCC(=O)O[C@]1(C(=O)CCl)[C@@H](C)C[C@H]2[C@@H]3CCC4=CC(=O)C=C[C@]4(C)[C@@]3(F)[C@@H](O)C[C@@]21C` [Clobetasol propionate, reference compound], the pIC50 in series [1] is about 6.30.
Regarding `O=C1O[C@H]([C@@H](O)CO)C(O)=C1O` [ascorbic acid, reference compound], the pEC50 in series [2] is 4.40.
In the case of `COC(C)=O` [methyl acetate, Methyl acetate, reference compound], the ocular irritancy potential result in series [3] was “strong eye irritant”.
